Test results from patent publication US20230031406A1, “COMPOUNDS AND COMPOSITIONS FOR TREATING CONDITIONS ASSOCIATED WITH NLRP ACTIVITY” (Novartis AG, priority 2018, published 2023).
Where two headings read alike, the source gives them in different places. Each block holds one molecule with its values, some of them ahead of it.

System: PMA-differentiated THP-1 cells
Test: IL-1β production in PMA-differentiated THP-1 cells stimulated with gramicidin (hTHP-1 assay containing 2% fetal bovine serum; Procedures 1 and 2)
Format: cell-based, human
Conditions: 2% fetal bovine serum
How it was run: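 PMA-primed (20 ng/ml, 16-18 h) THP-1 cells in RPMI with 2% FBS, 50,000 cells/well, were preincubated 1 h with compound (0.0017-100 μM final, 0.37% DMSO), then stimulated 2 h with 5 μM gramicidin. Supernatant IL-1β measured by HTRF.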

[1] = Table B1, class symbols, read-out: Average IC50 of compounds in hTHP-1 assay: hTHP-1 IC50
[2] = Homo sapiens, THP-1, Table B3, hTHP-1 assay, numeric values, read-out: IC50
[3] = Homo sapiens, THP-1, Table B3, hTHP-1 assay, class symbols, read-out: IC50
[4] = Homo sapiens, THP-1, Table B2, class symbols, read-out: hTHP-1 IC50
[5] = Homo sapiens, THP-1, Table B1, numeric bounds, read-out: Average IC50 of compounds in hTHP-1 assay: hTHP-1 IC50
[6] = Homo sapiens, THP-1, Table B1, class symbols, read-out: Average IC50 of compounds in hTHP-1 assay: hTHP-1 IC50
[7] = Table B2, class symbols, read-out: hTHP-1 IC50

SMILES: CC(C)(O)c1csc(S(N)(=O)=NC(=O)Nc2cc(C(F)(F)F)nc3c2CCC3)c1 (single isomer, unassigned) [Example 668, (S) or (R)-4-(2-hydroxypropan-2-yl)-N′-((2-(trifluoromethyl)-6,7-dihydro-5H-cyclopenta[b]pyridin-4-yl)carbamoyl)thiophene-2-sulfonimidamide]
IC50 [2]: > 30 µM

SMILES: CC1(C)CCc2c1nc1c(c2NC(=O)N=S(N)(=O)c2sc([C@](C)(O)CO)nc2CO)CCC1 (stereo partly drawn) [Example 600, 2-((R)-1,2-dihydroxypropan-2-yl)-N′-((3,3-dimethyl-1,2,3,5,6,7-hexahydrodicyclopenta[b,e]pyridin-8-yl)carbamoyl)-4-(hydroxymethyl)thiazole-5-sulfonimidamide]
IC50 [3]: 0.2 to 1 µM

SMILES: CC1(C)CCc2c1nc1c(c2NC(=O)N=S(N)(=O)c2ccn(C(F)F)n2)CCC1 (single isomer, unassigned) [Compound 122b, (S) or (R)-1-(difluoromethyl)-N′-((3,3-dimethyl-1,2,3,5,6,7-hexahydrodicyclo-penta[b,e]pyridin-8-yl)carbamoyl)-1H-pyrazole-3-sulfonimidamide]
IC50 [1]: 5 to 30 µM

SMILES: Cc1c(-c2ccccc2)nc2c(c1NC(=O)N=S(N)(=O)c1cnc(C(C)(C)O)s1)CCC2 (stereo not drawn) [Compound 143, 2-(2-hydroxypropan-2-yl)-N′-((3-methyl-2-phenyl-6,7-dihydro-5H-cyclopenta[b]pyridin-4-yl)carbamoyl)thiazole-5-sulfonimidamide]
IC50 [5]: > 30 µM

SMILES: Cn1nc(C(C)(C)O)cc1S(N)(=O)=NC(=O)Nc1c2c(nc3c1CCC3)CCC2 (stereo not drawn) [Compound 166, N′-((1,2,3,5,6,7-hexahydrodicyclopenta[b,e]pyridin-8-yl)carbamoyl)-3-(2-hydroxypropan-2-yl)-1-methyl-1H-pyrazole-5-sulfonimidamide]
IC50 [6]: 5 to 30 µM

SMILES: CN(C)Cc1nc(C(C)(C)O)sc1S(N)(=O)=NC(=O)Nc1c2c(nc3c1CCC3(C)C)CCC2 (stereo not drawn) [compound 592, N′-((3,3-dimethyl-1,2,3,5,6,7-hexahydrodicyclopenta[b,e]pyridin-8-yl)carbamoyl)-4-((dimethylamino)methyl)-2-(2-hydroxypropan-2-yl)thiazole-5-sulfonimidamide]
IC50 [2]: > 30 µM

SMILES: CC(C)(O)c1ccnc(S(N)(=O)=NC(=O)Nc2c3c(nc4c2CCC4(C)C)CCC3)c1 (stereo not drawn) [Compound 620, N′-((3,3-dimethyl-1,2,3,5,6,7-hexahydrodicyclopenta[b,e]pyridin-8-yl)carbamoyl)-4-(2-hydroxypropan-2-yl)pyridine-2-sulfonimidamide]
IC50 [4]: 5 to 30 µM

SMILES: COC(C)(C)c1nc(CO)c(S(N)(=O)=NC(=O)Nc2c3c(nc4c2CCC4(C)C)CCC3)s1 (stereo not drawn) [Compound 648, N′-((3,3-dimethyl-1,2,3,5,6,7-hexahydrodicyclopenta[b,e]pyridin-8-yl)carbamoyl)-4-(hydroxymethyl)-2-(2-methoxypropan-2-yl)thiazole-5-sulfonimidamide]
IC50 [4]: 1 to 5 µM

SMILES: CC(C)(O)c1ncc(S(N)(=O)=NC(=O)Nc2c3c(nc4c2CC4)CCC3)s1 (stereo not drawn) [Compound 672, 2-(2-Hydroxypropan-2-yl)-N′-((2,4,5,6-tetrahydro-1H-cyclobuta[b]cyclopenta[e]pyridin-7-yl)carbamoyl)thiazole-5-sulfonimidamide]
IC50 [4]: 5 to 30 µM

SMILES: CC1CCc2c1nc1c(c2NC(=O)N=S(N)(=O)c2cc(C(C)(C)O)cs2)CCC1 (single isomer, unassigned) [Compound 141bb, (S,R) or (S,S)-4-(2-hydroxypropan-2-yl)-N′-((3-methyl-1,2,3,5,6,7-hexahy-drodicyclopenta[b,e]pyridin-8-yl)carbamoyl)thiophene-2-sulfonimidamide]
IC50 [1]: 5 to 30 µM

SMILES: CC1CCc2c1nc1c(c2NC(=O)N=S(N)(=O)c2cc(C(C)(C)O)cs2)CCC1 (single isomer, unassigned) [Compound 141ba, (S,S) or (S,R)-4-(2-hydroxypropan-2-yl)-N′-((3-methyl-1,2,3,5,6,7-hexahy-drodicyclopenta[b,e]pyridin-8-yl)carbamoyl)thiophene-2-sulfonimidamide]
IC50 [1]: 1 to 5 µM

SMILES: CC(C)(O)c1sc(S(N)(=O)=NC(=O)Nc2c3c(nc4c2CCC4)CCC3)cc1F (stereo not drawn) [Compound 177, 4-fluoro-N′-((1,2,3,5,6,7-hexahydrodicyclopenta[b,e]pyridin-8-yl)carbamoyl)-5-(2-hydroxypropan-2-yl)thiophene-2-sulfonimidamide]
IC50 [6]: 5 to 30 µM

SMILES: Cc1cc(S(N)(=O)=NC(=O)Nc2c3c(nc4c2CCC4)CCC3)sc1C(C)(C)O (stereo not drawn) [Compound 692, N′-((1,2,3,5,6,7-hexahydrodicyclopenta[b,e]pyridin-8-yl)carbamoyl)-5-(2-hydroxypropan-2-yl)-4-methylthiophene-2-sulfonimidamide]
IC50 [4]: 1 to 5 µM

SMILES: Cc1nc2c(c(NC(=O)N=[S@@](N)(=O)c3cnc(C(C)(C)O)s3)c1C1CC1)CCC2 [Example 581, (R)-N′-((3-cyclopropyl-2-methyl-6,7-dihydro-5H-cyclopenta[b]pyridin-4-yl)carbamoyl)-2-(2-hydroxypropan-2-yl)thiazole-5-sulfonimidamide]
IC50 [2]: > 30 µM

SMILES: CCCc1cc(NC(=O)N=S(N)(=O)c2cnc(C(C)(C)O)s2)c2c(n1)CCC2 (stereo not drawn) [Compound 112, 2-(2-hydroxypropan-2-yl)-N′-((2-propyl-6,7-dihydro-5H-cyclopenta[b]pyridin-4-yl)carbamoyl)thiazole-5-sulfonimidamide]
IC50 [5]: > 30 µM

SMILES: CC(C)(O)c1cc(F)c(S(N)(=O)=NC(=O)Nc2cc(CC(F)(F)F)nc3c2CCC3)s1 (single isomer, unassigned) [Example 690, (S) or (R)-3-Fluoro-5-(2-hydroxypropan-2-yl)-N′-((2-(2,2,2-trifluoroethyl)-6,7-dihydro-5H-cyclopenta[b]pyridin-4-yl)carbamoyl)thiophene-2-sulfonimidamide]
IC50 [2]: > 30 µM

SMILES: CC1(C)CCc2nc3c(c(NC(=O)N=S(N)(=O)c4ccc([C@](C)(O)COCCOCc5ccccc5)s4)c21)CCC3 (stereo partly drawn) [Example 625, 5-((R)-1-(2-(benzyloxy)ethoxy)-2-hydroxypropan-2-yl)-N′-((1,1-dimethyl-1,2,3,5,6,7-hexahydrodicyclopenta[b,e]pyridin-8-yl)carbamoyl)thiophene-2-sulfonimidamide]
IC50 [3]: 1 to 5 µM

SMILES: CCc1c(C(F)(F)F)nc2c(c1NC(=O)N=S(N)(=O)c1nn(CC)cc1F)CCC2 (stereo not drawn) [Example 743, 1-Ethyl-N′-((3-ethyl-2-(trifluoromethyl)-6,7-dihydro-5H-cyclopenta[b]pyridin-4-yl)carbamoyl)-4-fluoro-1H-pyrazole-3-sulfonimidamide]
IC50 (Homo sapiens, THP-1, Table B4, class symbols, read-out: hTHP-1 IC50): 1 to 5 µM

Now from value to molecule:

IC50 [1]: 1 to 5 µM
SMILES: CC(C)c1ncc(F)c(C(C)C)c1NC(=O)N=S(N)(=O)c1cnc(C(C)(C)O)s1 (single isomer, unassigned) [Compound 164a, (R) or (S)-N′-((5-fluoro-2,4-diisopropylpyridin-3-yl)carbamoyl)-2-(2-hydroxypropan-2-yl)thiazole-5-sulfonimidamide]

IC50 [4]: 1 to 5 µM
SMILES: Cc1c(C2CC2)nc2c(c1NC(=O)N=S(N)(=O)c1ccn(C(F)F)n1)CCC2 (single isomer, unassigned) [Compound 676b, (R) or (S)-N′-((2-cyclopropyl-3-methyl-6,7-dihydro-5H-cyclopenta[b]pyridin-4-yl)carbamoyl)-1-(difluoromethyl)-1H-pyrazole-3-sulfonimidamide]

IC50 [5]: > 30 µM
SMILES: Cc1nc(C(C)(C)O)ccc1S(N)(=O)=NC(=O)Nc1c2c(nc3c1CCC3)CCC2 (single isomer, unassigned) [Compound 157a, (S) or (R)-N′-((1,2,3,5,6,7-hexahydrodicyclo-penta[b,e]pyridin-8-yl)carbamoyl)-6-(2-hydroxypropan-2-yl)-2-methylpyridine-3-sulfonimidamide]

IC50 [3]: 1 to 5 µM
SMILES: CC1(C)CCc2c1nc1c(c2NC(=O)N=[S@@](N)(=O)c2sc(C(O)(CO)CO)nc2CO)CCC1 [Compound 985a]

IC50 [7]: 0.04 to 0.2 µM
SMILES: Cc1c(C(C)C)nc2c(c1NC(=O)N=S(N)(=O)c1cnc(C(C)(C)O)s1)CCC2 (single isomer, unassigned) [Compound 650a, (R) or (S)-2-(2-Hydroxypropan-2-yl)-N′-((2-isopropyl-3-methyl-6,7-dihydro-5H-cyclopenta[b]pyridin-4-yl)carbamoyl)thiazole-5-sulfonimidamide]

IC50 [1]: 5 to 30 µM
SMILES: CC1CCc2c1nc1c(c2NC(=O)N=S(N)(=O)c2cnc(C(C)(C)O)s2)CCC1 (single isomer, unassigned) [Compound 162aa, (S,S) or (S,R)-2-(2-hydroxypropan-2-yl)-N′-((3-methyl-1,2,3,5,6,7-hexahydrodicyclo-penta[b,e]pyridin-8-yl)carbamoyl)thiazole-5-sulfonimidamide]

IC50 [7]: 0.2 to 1 µM
SMILES: CCc1c(C(F)(F)F)nc2c(c1NC(=O)N=S(N)(=O)c1sc(C(C)(C)O)cc1F)CCC2 (single isomer, unassigned) [Compound 611b, (R) or (S)-N′-((3-ethyl-2-(trifluoromethyl)-6,7-dihydro-5H-cyclopenta[b]pyridin-4-yl)carbamoyl)-3-fluoro-5-(2-hydroxypropan-2-yl)thiophene-2-sulfonimidamide]

IC50 [1]: 5 to 30 µM
SMILES: CC(C)c1ncc(F)c(C(C)C)c1NC(=O)N=S(N)(=O)c1cnc(C(C)(C)O)s1 (single isomer, unassigned) [Compound 164b, (S) or (R)-N′-((5-fluoro-2,4-diisopropylpyridin-3-yl)carbamoyl)-2-(2-hydroxypropan-2-yl)thiazole-5-sulfonimidamide]

IC50 [4]: 1 to 5 µM
SMILES: CC(C)(O)c1cc(F)c([S@](N)(=O)=NC(=O)Nc2cc(CC(F)(F)F)nc3c2CCC3)s1 [Compound 602b]
